Results: US12612368B2 (Remedy Plan, Inc., priority 2019, dated 2026)
Where two headings read alike, the source gives them in different places.

Legend:
NAMPT = target: T1, NAMPT (Homo sapiens, UniProt P43490); assay: NAMPT Activity Assay (Abcam #ab221819); type: biochemical; settings: purified NAMPT, two-step reaction, OD450 nm; percent inhibition vs no drug; compound concentration not stated
T1 construct: purchased Abcam ab221819

MV-4-11 cells = assay: Cell viability in MV-4-11 cells (CellTiter Glo2); type: cell-based; settings: Homo sapiens, MV4-11, 96 h, 8-point dose response, 4 days
Protocol: Approximately 10,000 MV-4-11 cells per well of a 96-well plate were treated with DMSO (no drug control) or each compound in Tables E1 and E2 in an 8-point dose response for 4 days, Cell viability was measured using CellTiter Glo2. The ICse of each compound was determined using CDD Vault.

[1] = CellTiter Glo2 (Table E1), read-out: MV-4-11 IC50
[2] = CellTiter Glo2 (Table E2), read-out: MV-4-11 Cell Viability, MV-4-11 IC50

T1 sequence (P43490 whole entry): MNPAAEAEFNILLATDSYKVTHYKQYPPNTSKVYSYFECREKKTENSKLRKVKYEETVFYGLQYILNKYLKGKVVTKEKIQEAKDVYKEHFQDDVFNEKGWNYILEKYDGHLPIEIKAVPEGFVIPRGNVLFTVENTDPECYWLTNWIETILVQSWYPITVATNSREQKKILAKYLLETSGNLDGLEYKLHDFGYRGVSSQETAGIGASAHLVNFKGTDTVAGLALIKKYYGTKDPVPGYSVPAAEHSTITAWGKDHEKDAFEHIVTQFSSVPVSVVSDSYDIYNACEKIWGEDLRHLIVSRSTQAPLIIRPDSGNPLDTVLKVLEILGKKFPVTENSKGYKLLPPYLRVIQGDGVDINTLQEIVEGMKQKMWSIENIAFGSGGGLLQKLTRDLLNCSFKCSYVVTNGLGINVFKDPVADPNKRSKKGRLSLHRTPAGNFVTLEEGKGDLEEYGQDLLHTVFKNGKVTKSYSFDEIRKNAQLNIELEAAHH

NAMPT Inhibition Code (NAMPT)	IC50 (MV-4-11 cells; [1])	IC50 (MV-4-11 cells; [2])	Compound
C (C = ≥66% inhibition)		0.0216 µM	CC(=O)N(c1ccc(-c2ccc(C(=O)NCc3cccnc3)cc2)cc1Cl)C(C)C [Compound I-597, 4-[4-[Acetyl(isopropyl)amino]-3-chloro-phenyl]-N-(3-pyridylmethyl)benzamide]
C (C = ≥66% inhibition)		0.00453 µM	Cc1cc(-c2ccc(C(=O)NCc3cccnc3)cn2)ccc1N(C(=O)C(F)F)C(C)C [Compound I-595, 6-[4-[(2,2-Difluoroacetyl)-isopropyl-amino]-3-methyl-phenyl]-N-(3-pyridylmethyl)pyridine-3-carboxamide]
C (C = ≥66% inhibition)		0.00291 µM	CC(=O)N(CC1CC1)c1ccc(-c2ccc(C(=O)NCc3ccc(N)nc3)cn2)cc1Cl [Compound I-677, 6-[4-[Acetyl(cyclopropylmethyl)amino]-3-chloro-phenyl]-N-[(6-amino-3-pyridyl)methyl]pyridine-3-carboxamide]
B (B = ≥33 to <66% inhibition)		0.22 µM	CC(=O)N(CC(F)F)c1ccc(-c2ccc(C(=O)NCc3cccnc3)cn2)cc1C [Compound I-608, 6-[4-[Acetyl(2,2-difluoroethyl)amino]-3-methyl-phenyl]-N-(3-pyridylmethyl)pyridine-3-carboxamide]
B (B = ≥33 to <66% inhibition)		0.351 µM	CCc1cc(-c2ccc(C(=O)NCc3cccnc3)cn2)ccc1N(C)C(C)=O [Compound I-605, 6-[4-[Acetyl(methyl)amino]-3-ethyl-phenyl]-N-(3-pyridylmethyl)pyridine-3-carboxamide]
A (A = <33% inhibition)		0.261 µM	CC(=O)N(CC1CC1)c1ccc(-c2ccc(C(=O)Nc3ccn4ccnc4c3)cn2)cc1Cl [Compound I-687, 6-[4-[Acetyl(cyclopropylmethyl)amino]-3-chloro-phenyl]-N-imidazo[1,2-a]pyridin-7-yl-pyridine-3-carboxamide]
A (A = <33% inhibition)		1.83 µM	CCOC(=O)NCCC(=O)N(C)c1ccc(-c2ccc(C(=O)NCc3cccnc3C)cn2)cc1C [Compound I-491, Ethyl N-[3-[N,2-dimethyl-4-[5-[(2-methyl-3-pyridyl)methylcarbamoyl]-2-pyridyl]anilino]-3-oxo-propyl]carbamate]
A (A = <33% inhibition)		9.85 µM	COC(=O)c1cc(-c2ccc(C(=O)NCc3cccnc3C)cn2)ccc1N(C)C(C)=O [Compound I-457, methyl 2-[acetyl(methyl)amino]-5-[5-[(2-methyl-3-pyridyl)methylcarbamoyl]-2-pyridyl]benzoate]
A (A = <33% inhibition)		> 30 µM	CC(=O)Nc1ccc(-c2ccc(C(=O)N(C)Cc3cccnc3C)cn2)cc1C#N [Compound I-483, 6-(4-Acetamido-3-cyano-phenyl)-N-methyl-N-[(2-methyl-3-pyridyl)methyl]pyridine-3-carboxamide]
B (B = ≥33 to <66% inhibition)			CC(=O)N(CC1CC1)c1ccc(-c2ccc(C(=O)Nc3cnc4[nH]ncc4c3)cn2)cc1Cl [Compound I-693, 6-[4-[Acetyl(cyclopropylmethyl)amino]-3-chloro-phenyl]-N-(1H-pyrazolo[3,4-b]pyridin-5-yl)pyridine-3-carboxamide]
C (C = ≥66% inhibition)			CC(=O)N(CC1CC1)c1ccc(-c2ccc(C(=O)NCc3ccc(F)nc3)cn2)cc1Cl [Compound I-696, 6-[4-[Acetyl(cyclopropylmethyl)amino]-3-chloro-phenyl]-N-[(6-fluoro-3-pyridyl)methyl]pyridine-3-carboxamide]
A (A = <33% inhibition)			CC(=O)N(CC1CC1)c1ccc(-c2ccc(C(=O)NCc3ccccn3)cn2)cc1Cl [Compound I-698, 6-[4-[Acetyl(cyclopropylmethyl)amino]-3-chloro-phenyl]-N-(2-pyridylmethyl)pyridine-3-carboxamide]
C (C = ≥66% inhibition)			CC(=O)N(CC1CC1)c1ccc(-c2ccc(C(=O)NCc3ccc(C)nc3)cn2)cc1Cl [Compound I-697, 6-[4-[Acetyl(cyclopropylmethyl)amino]-3-chloro-phenyl]-N-[(6-methyl-3-pyridyl)methyl]pyridine-3-carboxamide]

More lines, now with the values behind:

Compound	NAMPT Inhibition Code (NAMPT)	IC50 (MV-4-11 cells; [1])	IC50 (MV-4-11 cells; [2])
CCc1cc(-c2ccc(C(=O)NCc3cccnc3C)cn2)ccc1N(C)C(C)=O [Compound I-445, 6-[4-[acetyl(methyl)amino]-3-ethyl-phenyl]-N-[(2-methyl-3-pyridyl)methyl]pyridine-3-carboxamide]	A (A = <33% inhibition)	3.69 µM	
CCC(=O)N(C)c1ccc(-c2ccc(C(=O)NCc3ccc(OC)nc3)cn2)cc1C [Compound I-451]	B (B = ≥33 to <66% inhibition)		5.37 µM
CCOC(=O)N(C)c1ccc(-c2ccc(C(=O)NCc3cccnc3)nc2)cc1 [Compound I-330, ethyl N-methyl-N-[4-[6-(3-pyridylmethylcarbamoyl)-3-pyridyl]phenyl]carbamate]	A (A = <33% inhibition)	6.08 µM	
CCC(=O)N(C)c1ccc(-c2ccc(C(=O)NCc3ccc(C)nc3C)cn2)cc1 [Compound I-394, N-[(2,6-dimethyl-3-pyridyl)methyl]-6-[4-[methyl(propanoyl)amino]phenyl]pyridine-3-carboxamide]	A (A = <33% inhibition)	3.52 µM	
CCC(=O)N(C)c1ccc(-c2ccc(C(=O)NCc3ccc(Cl)nc3)cn2)cc1 [Compound I-396, N-[(6-chloro-3-pyridyl)methyl]-6-[4-[methyl(propanoyl)amino]phenyl]pyridine-3-carboxamide]	C (C = ≥66% inhibition)	6.56 µM	
CC(=O)N(C)c1ccc(-c2ccc(C(=O)NCc3cccnc3F)cn2)cc1C [Compound I-436, 6-[4-[acetyl(methyl)amino]-3-methyl-phenyl]-N-[(2-fluoro-3-pyridyl)methyl]pyridine-3-carboxamide]		13.8 µM	
CCC(=O)N(C)c1ccc(-c2ccc(C(=O)NCc3ccc(OC)nc3)cn2)cc1 [Compound I-397, N-[(6-methoxy-3-pyridyl)methyl]-6-[4-[methyl(propanoyl)amino]phenyl]pyridine-3-carboxamide]	B (B = ≥33 to <66% inhibition)	13.8 µM	
CC(=O)N(C)Cc1ccc(-c2ccc(C(=O)NCc3cccnc3)nc2)cc1 [Compound I-319, 5-[4-[[acetyl(methyl)amino]methyl]phenyl]-N-(3-pyridylmethyl)pyridine-2-carboxamide]		10 µM	
CCC(=O)Nc1ccc(-c2ccc(C(=O)NCc3cccnc3)cn2)cc1 [Compound I-354, 6-[4-(propanoylamino)phenyl]-N-(3-pyridylmethyl)pyridine-3-carboxamide]	A (A = <33% inhibition)	> 30 µM	
CC(=O)N(C)c1ccc(-c2ccc(C(=O)NCc3cccnc3C)cn2)cc1C [Compound I-428, 6-[4-[acetyl(methyl)amino]-3-methyl-phenyl]-N-[(2-methyl-3-pyridyl)methyl]pyridine-3-carboxamide]		3.46 µM	
CCN(C(C)=O)c1ccc(-c2ccc(C(=O)NCc3cccnc3C)cn2)cc1C [Compound I-429, 6-[4-[acetyl(ethyl)amino]-3-methyl-phenyl]-N-[(2-methyl-3-pyridyl)methyl]pyridine-3-carboxamide]		4.03 µM	
